Values quoted from earlier work, collected in US20160158245A1, “PHARMACEUTICAL FORMULATION CONTAINING THIENOTRIAZOLODIAZEPINE COMPOUNDS” (ONCOETHIX GmbH, priority 2013, published 2016).

System: BRD4 and c-MYC
Conditions: cited from earlier work

Cc1sc2c(c1C)C(c1ccc(Cl)cc1)=N[C@@H](CC(=O)OC(C)(C)C)c1nnc(C)n1-2 [JQ1]
BRD4 and c-MYC down-regulation: induce BRD4 down-regulation and subsequently c-MYC down-regulation
